According to patent US10765114B2, “4-amino-6-(pyridyl and 2-substitutedphenyl)-picolinates and 6-amino-2-(pyridyl and 2-substitutedphenyl)-pyrimidine-4-carboxylates and their use as herbicides” (Dow AgroSciences LLC, priority 2013, dated 2020):
Like-named read-outs stand apart in the source and are kept apart here.

Columns and labels:
[1] = tested on: Key Broadleaf Weed and Crop Species; test: Post-Emergent Test II (Table 5); type: in vivo; details: post-emergence, 336 h; for pest or weed control at 70 g/ha: application rate 70 (kg ai/ha; footnote: g ai/ha); for pest or weed control at 140 g/ha: application rate 140 (kg ai/ha; footnote: g ai/ha)
Summary of the method: (§1)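 Plants grown in a greenhouse (~15 h photoperiod, 23-29° C day) to first or second true leaf stage were sprayed post-emergence at 187 L/ha with compound in acetone/DMSO-based aqueous spray containing crop oil concentrate and surfactant, applied at a high rate plus ½× to 1/16× serial rates. Injury was scored visually 14 days later, 0-100% versus untreated plants.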

[2] = tested on: Key Grass and Sedge Weeds as well as Grass Crops; test: Post-Emergent Test II (Table 6); type: in vivo; details: post-emergence, 336 h, 14 days after application; for pest or weed control at 70 g/ha: 70 g ai/ha; for pest or weed control at 140 g/ha: 140 g ai/ha
Summary of the method: as §1

[3] = Abutilon theophrasti, ABUTH: velvetleaf (Abutilon theophrasti), read-out: Visual Growth Reduction (%) 14 Days After Application ABUTH
[4] = Amaranthus retroflexus, AMARE: redroot pigweed (Amaranthus retroflexus), read-out: Visual Growth Reduction (%) 14 Days After Application AMARE
[5] = Brassica napus, BRSSS: oilseed rape, canola (Brassica napus), read-out: Visual Growth Reduction (%) 14 Days After Application BRSSS
[6] = Chenopodium album, CHEAL: lambsquarters (Chenopodium album), read-out: Visual Growth Reduction (%) 14 Days After Application CHEAL
[7] = Euphorbia heterophylla, EPHHL: wild poinsettia (Euphorbia heterophylla), read-out: Visual Growth Reduction (%) 14 Days After Application EPHHL
[8] = Helianthus annuus, HELAN: sunflower (Helianthus annuus), read-out: Visual Growth Reduction (%) 14 Days After Application HELAN
[9] = Viola tricolor, VIOTR: wild pansy (Viola tricolor), read-out: Visual Growth Reduction (%) 14 Days After Application VIOTR
[10] = CYPSS, read-out: Visual Growth Reduction (%) 14 Days After Application CYPSS
[11] = DIGSA: crabgrass (Digitaria sanguinalis), read-out: Visual Growth Reduction (%) 14 Days After Application DIGSA
[12] = ECHSS, read-out: Visual Growth Reduction (%) 14 Days After Application ECHSS
[13] = ORYSS (crop), read-out: Visual Growth Reduction (%) 14 Days After Application ORYSS
[14] = SETFA: giant foxtail (Setaria faberi), read-out: Visual Growth Reduction (%) 14 Days After Application SETFA
[15] = SORVU: grain sorghum (Sorghum vulgare), read-out: Visual Growth Reduction (%) 14 Days After Application SORVU
[16] = TRZSS (crop), read-out: Visual Growth Reduction (%) 14 Days After Application TRZSS
[17] = ZEAMX: maize, corn (Zea mays), read-out: Visual Growth Reduction (%) 14 Days After Application ZEAMX

Compound | pest or weed control at 70 g/ha [1, 3] | pest or weed control at 140 g/ha [1, 3] | pest or weed control at 70 g/ha [1, 4] | pest or weed control at 140 g/ha [1, 4] | pest or weed control at 70 g/ha [1, 5] | pest or weed control at 140 g/ha [1, 5] | pest or weed control at 70 g/ha [1, 6] | pest or weed control at 140 g/ha [1, 6] | pest or weed control at 70 g/ha [1, 7] | pest or weed control at 140 g/ha [1, 7] | pest or weed control at 70 g/ha [1, 8] | pest or weed control at 140 g/ha [1, 8] | pest or weed control at 70 g/ha [1, 9] | pest or weed control at 140 g/ha [1, 9] | pest or weed control at 70 g/ha [2, 10] | pest or weed control at 140 g/ha [2, 10] | pest or weed control at 70 g/ha [2, 11] | pest or weed control at 140 g/ha [2, 11] | pest or weed control at 70 g/ha [2, 12] | pest or weed control at 140 g/ha [2, 12] | further results
COC(=O)c1nc(-c2ccc(C(F)(F)F)nc2F)c(F)c(N)c1Cl [Compound 24] | 75 to 84% | 75 to 84% | 75 to 84% | 95 to 100% | 60 to 74% | 75 to 84% | 95 to 100% | 95 to 100% | 85 to 94% | 85 to 94% | 95 to 100% | 95 to 100% | 0 to 29% | 0 to 29% | 45 to 59% | 95 to 100% | 0 to 29% | 75 to 84% | 45 to 59% | 60 to 74% | pest or weed control at 70 g/ha [2, 13]: 0 to 29%; pest or weed control at 140 g/ha [2, 13]: 0 to 29%; pest or weed control at 70 g/ha [2, 14]: 75 to 84%; pest or weed control at 140 g/ha [2, 14]: 75 to 84%; pest or weed control at 70 g/ha [2, 15]: 30 to 44%; pest or weed control at 140 g/ha [2, 15]: 45 to 59%; pest or weed control at 70 g/ha [2, 16]: 0 to 29%; pest or weed control at 140 g/ha [2, 16]: 0 to 29%; pest or weed control at 70 g/ha [2, 17]: 0 to 29%; pest or weed control at 140 g/ha [2, 17]: 95 to 100%; melting point: 128 °C
COc1nc(Cl)ccc1-c1cc(N)c(Cl)c(C(=O)O)n1 [Compound 57] | 85 to 94% | 85 to 94% | 95 to 100% | 95 to 100% | 75 to 84% | 75 to 84% | 85 to 94% | 85 to 94% | 0 to 29% | 0 to 29% | 85 to 94% | 85 to 94% | 0 to 29% | 0 to 29% | 0 to 29% | 0 to 29% | 0 to 29% | 0 to 29% | 0 to 29% | 0 to 29% | pest or weed control at 70 g/ha [2, 13]: 0 to 29%; pest or weed control at 140 g/ha [2, 13]: 0 to 29%; pest or weed control at 70 g/ha [2, 14]: 0 to 29%; pest or weed control at 140 g/ha [2, 14]: 0 to 29%; pest or weed control at 70 g/ha [2, 15]: 0 to 29%; pest or weed control at 140 g/ha [2, 15]: 0 to 29%; pest or weed control at 70 g/ha [2, 16]: 0 to 29%; pest or weed control at 140 g/ha [2, 16]: 0 to 29%; pest or weed control at 70 g/ha [2, 17]: 0 to 29%; pest or weed control at 140 g/ha [2, 17]: 0 to 29%; melting point: 170 to 171 °C
COC(=O)c1nc(-c2ccc(Cl)c(Cl)c2C)cc(N)c1Cl [Compound 77] | 95 to 100% | 95 to 100% | 95 to 100% | 95 to 100% | 95 to 100% | 95 to 100% | 95 to 100% | 95 to 100% | 0 to 29% | 0 to 29% | 45 to 59% | 60 to 74% | 0 to 29% | 0 to 29% | 0 to 29% | 0 to 29% | 0 to 29% | 0 to 29% | 0 to 29% | 0 to 29% | pest or weed control at 70 g/ha [2, 13]: 0 to 29%; pest or weed control at 140 g/ha [2, 13]: 0 to 29%; pest or weed control at 70 g/ha [2, 14]: 0 to 29%; pest or weed control at 140 g/ha [2, 14]: 0 to 29%; pest or weed control at 70 g/ha [2, 15]: 0 to 29%; pest or weed control at 140 g/ha [2, 15]: 0 to 29%; pest or weed control at 70 g/ha [2, 16]: 0 to 29%; pest or weed control at 140 g/ha [2, 16]: 0 to 29%; pest or weed control at 70 g/ha [2, 17]: 0 to 29%; pest or weed control at 140 g/ha [2, 17]: 0 to 29%; melting point: 136 to 142 °C
COC(=O)c1nc(-c2ccc(OC(F)F)nc2)c(F)c(N)c1Cl [Compound 71] | 85 to 94% | 85 to 94% | 0 to 29% | 0 to 29% | 30 to 44% | 45 to 59% | 85 to 94% | 85 to 94% | 95 to 100% | 95 to 100% | 85 to 94% | 85 to 94% | 0 to 29% | 0 to 29% | 0 to 29% | 45 to 59% | 75 to 84% | 60 to 74% | 60 to 74% | 75 to 84% | pest or weed control at 70 g/ha [2, 13]: 0 to 29%; pest or weed control at 140 g/ha [2, 13]: 0 to 29%; pest or weed control at 70 g/ha [2, 14]: 75 to 84%; pest or weed control at 140 g/ha [2, 14]: 85 to 94%; pest or weed control at 70 g/ha [2, 15]: 60 to 74%; pest or weed control at 140 g/ha [2, 15]: 75 to 84%; pest or weed control at 70 g/ha [2, 16]: 45 to 59%; pest or weed control at 140 g/ha [2, 16]: 45 to 59%; pest or weed control at 70 g/ha [2, 17]: 0 to 29%; pest or weed control at 140 g/ha [2, 17]: 60 to 74%; melting point: 134 to 136 °C
